For one compound, MIC and MBC results are on record in patent publication US4758565A, “Substituted pyrimidoquinoxalines useful as anti-anaerobic agents” (G. D. Searle & Co., priority 1986, dated 1988).

What all share (format): cell-based
The test system of one assay is B. fragilis WS-1. Description: Screening panel of Bacteroides fragilis, MIC and MBC, strain E. The note with it: WS1, 48 h. As for the experimental part:
(§1) The screening panel utilized in this example consisted of 5 strains of Bacteroides fragilis. All assays were carried out in 96-well microtitre plates. If an isolate was obtained from either a culture collection or clinical source, the isolate was immediately inoculated into Wilkins-Chalgren broth (Oxoid) and incubated at 37° C. in an anaerobic chamber in an atmosphere of 85% nitrogen, 10% carbon dioxide, and 5% hydrogen for 48 hours. At the end of this time, the viable count was about […] broth. A 1 ml aliquot of each culture was placed in an ampoule and quick frozen in acetone-dry ice mixture and stored in liquid nitrogen. […] A 2 mg sample of the test compound was dissolved in 0.2 ml of a suitable solvent such as dimethylsulfoxide, polyethylene glycol 200 or methanol. […] After addition of the test solution the final inoculum level was 10^5 cells/ml. The plates were incubated for 48 hours at 37° C. in the anaerobic chamber. The Minimum Inhibitory Concentration (MIC) was read visually. The MIC is defined as the lowest concentration at which there is no detectable growth. The Minimum Bactericidal Concentration (MBC) was determined by taking 50 μ l aliquot from each well and placing it in fresh medium. […] The strains of Bacteroides fragilis utilized in the above procedure are identified by letter in accordance with the following legend: |E B. fragilis WS-1* | *Obtained from St. Thomas's Hospital Medical School, London, United | Kingdom.

The subject of a further assay is B. fragilis NCTC 9353. The experiment in a line: Screening panel of Bacteroides fragilis, MIC and MBC, strain B. The note with it: Bacteroides fragilis, NCTC9353, 48 h. As for the experimental part: as §1, with “|B” for “|E”, “NCTC 9353” for “WS-1* | *Obtained from St. Thomas's Hospital Medical School, London, United | Kingdom.”
Assay [1] relates to Campylobacter fetus ss. jejuni NCTC 10842. The experiment in a line: MIC vs panel of anaerobes. The conditions noted are these: NCTC10842, procedures of Example 11 (mg/L).
A further assay has as its system Peptococcus magnus. The experiment in a line: MIC vs panel of anaerobes. The note with it: Finegoldia magna, procedures of Example 11 (mg/L).
The next assay has as its system B. fragilis NCTC 9344. The experiment in a line: Screening panel of Bacteroides fragilis, MIC and MBC, strain C. The note with it: Bacteroides fragilis. The procedure: as §1, with “|C” for “|E”, “NCTC 9344” for “WS-1* | *Obtained from St. Thomas's Hospital Medical School, London, United | Kingdom.”
In assay [2] the test system is Propionebacterium acnes NCTC 7337. The experiment in a line: MIC vs panel of anaerobes. The conditions noted are these: procedures of Example 11 (mg/L).
The next assay deals with B. fragilis NCTC 10581. The experiment in a line: Screening panel of Bacteroides fragilis, MIC and MBC, strain A. As for the experimental part:
as §1, with “|A” for “|E”, “NCTC 10581” for “WS-1* | *Obtained from St. Thomas's Hospital Medical School, London, United | Kingdom.”

Assay [3] relates to Clostridium difficile NCIB 10666. The experiment in a line: MIC vs panel of anaerobes. The note with it: Clostridioides difficile, NCIB10666, procedures of Example 11 (mg/L).
The subject of assay [4] is Peptostreptococcus anaerobius. Description: MIC vs panel of anaerobes. The conditions noted are these: procedures of Example 11 (mg/L).
Where [5] appears, read: 48 hours at 37° C., anaerobic, read-out: Minimum Inhibitory Concentration (MIC).
[6] abbreviates: less than 5 colonies (99.9% reduction) after 48 hours, read-out: Minimum Bactericidal Concentration (MBC).

≈ marks a conversion by molar mass, not a printed value. A value given as a limit tells only on which side of the number the result lay.

Turning to `Cc1ccc(C2=[N+]([O-])c3cc(C(F)(F)F)ccc3N3CC(C)(C)CN=C23)cc1` [Example 3, 2,3-Dihydro-2,2-dimethyl-5-(4-methylphenyl)-8-trifluoromethyl-1H-pyrimid [1,2-a]quinoxaline 6-oxide], the MIC is under 0.8 µg/mL in the assay on B. fragilis WS-1 (setting [5]); 1.5 µg/mL (≈ 3.87 µM) in the assay on B. fragilis NCTC 9353 (setting [5]); 12.5 µg/mL (≈ 32.3 µM) in [1]; over 100 µg/mL against Peptococcus magnus; 3.1 µg/mL (≈ 8 µM) in the assay with B. fragilis NCTC 9344 (NCTC9344, 48 hours at 37° C., anaerobic, read-out: Minimum Inhibitory Concentration (MIC)); over 100 µg/mL in [2]. Besides, the MIC with B. fragilis NCTC 10581 (NCTC10581, 48 hours at 37° C., anaerobic, read-out: Minimum Inhibitory Concentration (MIC)) was under 0.8 µg/mL; in assay [3], under 0.8 µg/mL; in assay [4], over 100 µg/mL. Besides, the MBC in the assay on B. fragilis WS-1 (setting [6]) was 1.5 µg/mL (≈ 3.87 µM); in the assay with B. fragilis NCTC 9353 (setting [6]), 1.5 µg/mL (≈ 3.87 µM); with B. fragilis NCTC 9344 (NCTC9344, 48 h, less than 5 colonies (99.9% reduction) after 48 hours, read-out: Minimum Bactericidal Concentration (MBC)), 3.1 µg/mL (≈ 8 µM); with B. fragilis NCTC 10581 (NCTC10581, less than 5 colonies (99.9% reduction) after 48 hours, read-out: Minimum Bactericidal Concentration (MBC)), under 0.8 µg/mL.
